Measured values reported in patent publication US12516052B2, “Methyltransferase 5 (PRMT5) inhibitors and methods of treatment” (THE TRUSTEES OF INDIANA UNIVERSITY, priority 2016, dated 2026).
Entries after “also recorded” stand apart in the source; their conditions may differ.

Assays:
PRMT5 = molecular target: T1, PRMT5 (Homo sapiens, UniProt O14744); test: AlphaLISA PRMT5 methylation assay (biotin-histone H4R3, SAM); type: biochemical; settings: PRMT5 methylation of histone H4R3, in vitro; read-out: IC50 using AlphaLISA
T1 construct: Flag; made in house; host or cells: 293 cells
Protocol: FIG. 1 is a schematic illustration of the AlphaLISA technique for the identification of small-molecule PRMT5 inhibitors. Biotinylated substrate (histone H4) is incubated with PRMT5 and methyl donor, S-adenosyl-1-methionine (SAM). PRMT5 symmetrically dimethylates the third arginine (R3) on biotin-H4 to form biotin-H4R3me2. This product is recognized by Acceptor beads specific for this methylation site. Donor beads have a streptavidin tag and bind to biotin-H4. Interaction between the Acceptor and Donor beads emits a chemiluminescent signal, which is detected by an ENVISION™ Reader (PerkinElmer, Waltham, MA). The methylation activity of PRMT5 is proportional to the intensity of this signal.
In order to identify PRMT5 inhibitors, the AlphaLISA technique (PerkinElmer, Waltham, MA) was adapted to an assay that could precisely quantify PRMT5 dimethylation of its substrate in a 384-well HTS platform (FIG. 1). The AlphaLISA high-throughput screen comprises incubating a biotinylated substrate (e.g., histone H4), PRMT5, and a methyl donor (e.g., S-adenosyl-1-methionine (SAM)); PRMT5 dimethylates the biotinylated substrate and the dimethylated biotinylated substrate is recognized by Acceptor beads specific for the methylation site. Donor beads comprising a tag (e.g., streptavadin) bind to the biotinylated substrate, and interaction between the Acceptor beads and Donor beads emits a signal (e.g., chemiluminescent signal), which can be detected. The methylation activity of PRMT5 is proportional to the intensity of the signal.
In one embodiment of the method used to identify the compounds disclosed herein, PRMT5 enzyme was purified with anti-Flag-M2 beads (Sigma-Aldrich, St. Louis, MO) from 293 cells overexpressing the Flag-PRMT5 protein (Wei et al., Proc Natl Acad Sci USA, 2013; 110: 13516-13521). The enzyme prep was diluted at 1:10 in assay buffer (30 mM Tris, pH 8.0, 1 mM DTT, 0.01% BSA, 0.01% Tween-20) before use. […] The plates were read using an ENVISION™ Reader (PerkinElmer, Waltham, MA).

HT29 cells [1] = test: Anchorage-independent (soft agar) growth assay in HT29 cells; type: cell-based; settings: increasing concentrations
Protocol: The ability to form colonies suspended in soft agar is a characteristic of cancer cells. By using the stable cell lines established above, an anchorage-independent assay in soft agar was conducted. 2.5% and 1.25% agar were used to prepare the bottom and top layers of the soft agar, respectively. The bottom agar was added to each well of a 6-well plate. 2×10^5 cells for each cell line were then added and mixed into top agar solution and layered on top of the bottom layer. The plates were incubated for 10-20 days at 37° C. and 5% CO2. Images were captured using a Canon EOS Rebel T3i Digital SLR camera (Canon, Woodridge, IL) and quantification of colony size and number was performed using ImageJ. […] A soft agar experiment was also performed to determine the effect of compound (IIa) on colony growth.

PANC1 cells = test: PANC1 subcutaneous xenograft tumor efficacy study in NSG mice; type: in vivo; settings: 20 mg/kg intraperitoneally 3×/week, vs vehicle control, n=4
Protocol: (§1) NSG (NOD scid gamma) mice were obtained from the In Vivo Therapeutics Core at Indiana University School of Medicine. After acclimation for 7 days, NSG mice (6-8 weeks old) were xenografted with mycoplasma-free PANC1 or HT29 cells subcutaneously (1×10^7 PANC1 or 3×10^6 HT29 cells used per mouse in 0.2 ml of a 1:1 mix of phosphate-buffered saline and MATRIGEL™) (BD Biosciences, San Jose, CA). Mice were randomized when tumor volumes reached about 100 mm^3. Mice were treated with either vehicle control or 20 mg/kg of compound (Ia) (drug stock dissolved in 1:1 CREMOPHOR™:ethanol solution) intraperitoneally 3 times per week. Tumor volumes and body weights were measured twice a week. The study was performed in accordance with the guidelines and standards of the Institutional Animal Care and Use Committee (IACUC). […] NSG (NOD scid gamma) mice were obtained from the In Vivo Therapeutics Core at Indiana University School of Medicine. After acclimation for 7 days, NSG mice (6-8 weeks old) were xenografted with mycoplasma-free PANC1 or HT29 cells subcutaneously (1×10^7 PANC1 or 3×10^6 HT29 cells used per mouse in 0.2 ml of a 1:1 mix of phosphate-buffered saline and MATRIGEL™) (BD Biosciences, San Jose, CA). Mice were randomized when tumor volumes reached about 100 mm^3. […] Tumor volumes and body weights were measured twice a week. […]

HT29 cells [2] = test: HT29 subcutaneous xenograft tumor efficacy study in NSG mice; type: in vivo; settings: 20 mg/kg intraperitoneally 3×/week, vs vehicle control, n=4
Protocol: as §1

[3] = Body weight of xenografted NSG mice during treatment; type: in vivo; settings: 20 mg/kg intraperitoneally 3×/week, over the course of treatment
Protocol: NSG (NOD scid gamma) mice were obtained from the In Vivo Therapeutics Core at Indiana University School of Medicine. After acclimation for 7 days, NSG mice (6-8 weeks old) were xenografted with mycoplasma-free PANC1 or HT29 cells subcutaneously (1×10^7 PANC1 or 3×10^6 HT29 cells used per mouse in 0.2 ml of a 1:1 mix of phosphate-buffered saline and MATRIGEL™) (BD Biosciences, San Jose, CA). Mice were randomized when tumor volumes reached about 100 mm^3. Mice were treated with either vehicle control or 20 mg/kg of compound (Ia) (drug stock dissolved in 1:1 CREMOPHOR™:ethanol solution) intraperitoneally 3 times per week. Tumor volumes and body weights were measured twice a week. The study was performed in accordance with the guidelines and standards of the Institutional Animal Care and Use Committee (IACUC). […] NSG (NOD scid gamma) mice were obtained from the In Vivo Therapeutics Core at Indiana University School of Medicine. After acclimation for 7 days, NSG mice (6-8 weeks old) were xenografted with mycoplasma-free PANC1 or HT29 cells subcutaneously (1×10^7 PANC1 or 3×10^6 HT29 cells used per mouse in 0.2 ml of a 1:1 mix of phosphate-buffered saline and MATRIGEL™) (BD Biosciences, San Jose, CA). Mice were randomized when tumor volumes reached about 100 mm^3. Mice were treated with either vehicle control or 20 mg/kg of compound (IIa) (drug stock dissolved in 1:1 CREMOPHOR™:ethanol solution) intraperitoneally 3 times per week. Tumor volumes and body weights were measured twice a week. The study was performed in accordance with the guidelines and standards of the Institutional Animal Care and Use Committee (IACUC).

[4] = system: methamphetamine-treated rats; test: Striatal neurotransmitter levels (HPLC) in methamphetamine-treated rats; type: in vivo; settings: methamphetamine 7.5 mg/kg ×4, then 4 injections of 1 mg/kg at 12 hour intervals, vs vehicle
Protocol: Rats were given methamphetamine treatment 7.5 mg/kg, 4 injections spaced out at 2 hours each. Then, 4 injections of 1 mg/kg of compound (IIa) or vehicle control were given at 12 hours, 24 hours, 36 hours, and 48 hours after the last methamphetamine injection. Rats were sacrificed 24 hours after the last injection and neurotransmitter levels were quantified in the striatum using high performance liquid chromatography (HPLC).

T1 sequence (O14744 whole entry): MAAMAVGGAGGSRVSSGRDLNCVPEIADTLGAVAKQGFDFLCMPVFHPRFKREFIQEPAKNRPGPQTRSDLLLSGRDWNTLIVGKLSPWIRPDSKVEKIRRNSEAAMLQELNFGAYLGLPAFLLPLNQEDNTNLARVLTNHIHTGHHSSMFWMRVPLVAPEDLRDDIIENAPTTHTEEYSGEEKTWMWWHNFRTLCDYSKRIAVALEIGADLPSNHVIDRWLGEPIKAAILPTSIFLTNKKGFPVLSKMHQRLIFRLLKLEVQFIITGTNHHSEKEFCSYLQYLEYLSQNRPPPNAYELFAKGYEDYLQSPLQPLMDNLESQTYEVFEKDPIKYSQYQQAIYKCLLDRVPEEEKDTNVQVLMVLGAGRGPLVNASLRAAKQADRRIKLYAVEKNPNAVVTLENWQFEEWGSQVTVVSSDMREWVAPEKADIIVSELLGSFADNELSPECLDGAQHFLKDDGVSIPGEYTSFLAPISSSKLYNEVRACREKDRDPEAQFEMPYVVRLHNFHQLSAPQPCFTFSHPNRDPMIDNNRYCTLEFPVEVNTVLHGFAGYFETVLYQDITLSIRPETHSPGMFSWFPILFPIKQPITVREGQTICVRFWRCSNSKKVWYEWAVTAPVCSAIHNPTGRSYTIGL
T1 sequence (Q9BQA1 whole entry partner): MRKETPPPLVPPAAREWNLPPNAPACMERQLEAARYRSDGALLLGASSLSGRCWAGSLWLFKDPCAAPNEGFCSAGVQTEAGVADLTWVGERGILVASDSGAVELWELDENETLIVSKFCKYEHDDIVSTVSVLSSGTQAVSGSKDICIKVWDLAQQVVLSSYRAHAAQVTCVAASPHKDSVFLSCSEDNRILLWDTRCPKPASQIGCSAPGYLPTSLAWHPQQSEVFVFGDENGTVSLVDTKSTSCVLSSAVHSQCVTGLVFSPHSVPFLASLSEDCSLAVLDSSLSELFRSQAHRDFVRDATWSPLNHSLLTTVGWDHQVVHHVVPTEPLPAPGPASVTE

In the case of Cc1ccc(Nc2nc(NCCN(C)C)nc3c2cnn3-c2ccccc2)cc1C [compound (IIa)], the IC50 (PRMT5) is reported as ~7.5 µM, the “anchorage-independent growth / colony formation, HT29 (CRC)” value (HT29 cells [1]) is reported as “strongly inhibited colony formation; also recorded: significant decrease” and the “tumor growth (tumor volume), PANC1 xenograft” value (PANC1 cells) is reported as “significant tumor inhibition effect; also recorded: inhibition of tumor growth”. For the same molecule, the “tumor growth (tumor volume), HT29 xenograft” value (HT29 cells [2]) was “significant tumor inhibition effect; also recorded: inhibition of tumor growth”, the “body weight, HT29 model” value [3] was “did not visibly affect the body weight; also recorded: no significant changes in body weight” and the “body weight, PANC1 model” value [3] was “did not visibly affect the body weight; also recorded: no significant changes in body weight”. For the same molecule, the “dopamine levels in the striatum” value [4] was “increase” and the “serotonin levels in the striatum” value [4] was “increase”.
